Data: patent publication US6979686B1, “Substituted pyrazoles as p38 kinase inhibitors” (Pharmacia Corporation, priority 2001, dated 2005)
Like-named read-outs stand apart in the source and are kept apart here.

Experiments:
[1] = tested on: TNF-α, U937 human histiocytic lymphoma cell line; assay: LPS stimulation of TNF production by U937 cells; format: cell-based; details: for inhibition at 1 µM: U-937, @ 1.0 uM, read-out: U937 Cell % inhib @ conc.; for IC50: human U937 cells stimulated with LPS, read-out: U937 Cell IC50
In short: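 U937 cells differentiated 24 h with 20 ng/ml PMA, rested 24-48 h, used at 2 million cells/ml. Compounds in 0.1% DMSO final; LPS (E. coli, 100 ng/ml final) stimulation for 4 h at 37° C. Released TNF-α measured by ELISA; IC50 (μM).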

[2] = biological target: T1, human p38 kinase alpha (Homo sapiens, UniProt Q16539); assay: p38 kinase in vitro assay, phosphorylation of biotinylated PHAS-I with 32P-ATP; format: biochemical; details: for IC50: read-out: P38 alpha kinase IC50; for P38 alpha kinase % inhib @ conc. (uM): @ 1.0 uM
T1 construct: GST (N, cleaved yes); made in house; host or cells: E. coli DH10B

[3] = Homo sapiens, TNF production, U937 cells stimulated with LPS
[4] = in vitro P38-alpha kinase inhibition
[5] = Homo sapiens, U-937, TNF production
[6] = Homo sapiens, TNF production, LPS-stimulated U937 cells

T1 sequence (Q16539 whole entry): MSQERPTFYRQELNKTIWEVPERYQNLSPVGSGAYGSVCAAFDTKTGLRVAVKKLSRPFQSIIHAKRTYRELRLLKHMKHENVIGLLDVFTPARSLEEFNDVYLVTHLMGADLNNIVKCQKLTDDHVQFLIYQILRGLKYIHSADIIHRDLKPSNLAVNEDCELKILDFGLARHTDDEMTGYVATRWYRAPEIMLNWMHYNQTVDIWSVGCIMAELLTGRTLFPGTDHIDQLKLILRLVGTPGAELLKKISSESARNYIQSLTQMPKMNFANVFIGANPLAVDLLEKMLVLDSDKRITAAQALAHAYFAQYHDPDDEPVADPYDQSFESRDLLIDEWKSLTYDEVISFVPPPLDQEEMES

Row | SMILES | IC50 [1, 5] [nM] | inhibition at 1 µM [1, 6] [%] | IC50 ([2]; in vitro P38-alpha kinase) [nM] | also measured
1 | CCCCOc1ccc(S(=O)(=O)NCCc2[nH]nc(-c3ccc(F)cc3)c2-c2ccncc2)cc1 [Example B-1084] | – | – | – | inhibition at 1 µM [1, 3]: 29%; IC50 [2, 4]: 430 nM
2 | COc1ccc(OC)c(S(=O)(=O)NCCc2[nH]nc(-c3ccc(F)cc3)c2-c2ccncc2)c1 [Example B-1085] | – | – | – | inhibition at 1 µM [1, 3]: 29%; IC50 [2, 4]: < 100 nM
3 | Cc1ccccc1C(=O)NCCc1[nH]nc(-c2ccc(F)cc2)c1-c1ccncc1 [Example B-1120] | – | – | – | inhibition at 1 µM [1, 3]: 9%; IC50 [2, 4]: 470 nM
4 | O=C(NCCc1[nH]nc(-c2ccc(F)cc2)c1-c1ccncc1)c1ccc(Cl)cc1 [Example B-1121] | – | – | – | inhibition at 1 µM [1, 3]: 29%; IC50 [2, 4]: 3580 nM
5 | O=C(NCCc1[nH]nc(-c2ccc(F)cc2)c1-c1ccncc1)c1cc(Cl)cc(Cl)c1 [Example B-1126] | > 1000 | – | – | IC50 [2, 4]: 1500 nM
6 | N#Cc1cccc(C(=O)NCCc2[nH]nc(-c3ccc(F)cc3)c2-c2ccncc2)c1 [Example B-1127] | – | – | – | inhibition at 1 µM [1, 3]: 7%; IC50 [2, 4]: 710 nM
7 | O=C(NCCc1[nH]nc(-c2ccc(F)cc2)c1-c1ccncc1)c1cc(F)cc(F)c1 [Example B-1130] | – | – | – | inhibition at 1 µM [1, 3]: 29%; IC50 [2, 4]: 500 nM
8 | O=C(NCCc1[nH]nc(-c2ccc(F)cc2)c1-c1ccncc1)c1cccc(Cl)c1Cl [Example B-1132] | – | – | – | inhibition at 1 µM [1, 3]: 11%; IC50 [2, 4]: 720 nM
9 | O=C(NCCc1[nH]nc(-c2ccc(F)cc2)c1-c1ccncc1)c1cccc(C(F)(F)F)c1F [Example B-1138] | > 1000 | – | – | IC50 [2, 4]: 1820 nM
10 | O=C(NCCc1[nH]nc(-c2ccc(F)cc2)c1-c1ccncc1)c1ccc(F)cc1C(F)(F)F [Example B-1139] | – | – | – | inhibition at 1 µM [1, 3]: 29%; IC50 [2, 4]: 41 nM
11 | O=C(NCCc1[nH]nc(-c2ccc(F)cc2)c1-c1ccncc1)c1ccc(C(F)(F)F)cc1 [Example B-1155] | – | – | – | inhibition at 1 µM [1, 3]: 30%; IC50 [2, 4]: 3220 nM
12 | O=C(NCCCc1[nH]nc(-c2ccc(F)cc2)c1-c1ccncc1)C1CCC1 [Example B-1165] | – | – | – | IC50 ([1]; TNF production): 990 nM; P38 alpha kinase % inhib @ conc. (uM) [2]: 66.0% @
13 | CC(C)=CC(=O)NCCCc1[nH]nc(-c2ccc(F)cc2)c1-c1ccncc1 [Example B-1175] | – | – | – | IC50 ([1]; TNF production): 1830 nM; P38 alpha kinase % inhib @ conc. (uM) [2]: 72.0% @
14 | COc1ccc(CC(=O)NCCCc2[nH]nc(-c3ccc(F)cc3)c2-c2ccncc2)cc1 [Example B-1177] | – | – | – | IC50 ([1]; TNF production): 1160 nM; P38 alpha kinase % inhib @ conc. (uM) [2]: 70.0% @
15 | COc1cccc(C(=O)NCCCc2[nH]nc(-c3ccc(F)cc3)c2-c2ccncc2)c1 [Example B-1185] | – | – | – | IC50 ([1]; TNF production): 790 nM; P38 alpha kinase % inhib @ conc. (uM) [2]: 71.0% @
16 | O=S(=O)(NCCCc1[nH]nc(-c2ccc(F)cc2)c1-c1ccncc1)c1cccc(Cl)c1Cl [Example B-1250] | – | 18 | 140 | –
17 | O=S(=O)(NCCCc1[nH]nc(-c2ccc(F)cc2)c1-c1ccncc1)c1ccccc1Br [Example B-1259] | 480 | – | < 100 | –
18 | Cc1ccc(C)c(S(=O)(=O)NCCCc2[nH]nc(-c3ccc(F)cc3)c2-c2ccncc2)c1 [Example B-1273] | – | 36 | < 100 | –
19 | O=S(=O)(NCCCc1[nH]nc(-c2ccc(F)cc2)c1-c1ccncc1)c1cccc(C(F)(F)F)c1 [Example B-1276] | – | 11 | 62 | –
20 | Cc1noc(C)c1S(=O)(=O)NCCCc1[nH]nc(-c2ccc(F)cc2)c1-c1ccncc1 [Example B-1281] | – | 85 | < 100 | –
21 | O=C(NCCCc1[nH]nc(-c2ccc(F)cc2)c1-c1ccncc1)NCCCn1ccnc1 [Example B-1297] | > 1000 | – | 20 | –
22 | CN(C)c1ccc(CNC(=O)NCCCc2[nH]nc(-c3ccc(F)cc3)c2-c2ccncc2)cc1 [Example B-1301] | – | 15 | 120 | –
23 | CN(C)CCNC(=O)NCCCc1[nH]nc(-c2ccc(F)cc2)c1-c1ccncc1 [Example B-1302] | – | 11 | 23 | –
24 | CN(C)CCCNC(=O)NCCCc1[nH]nc(-c2ccc(F)cc2)c1-c1ccncc1 [Example B-1303] | > 1000 | – | 80 | –
25 | CC(=O)NCCNC(=O)NCCCc1[nH]nc(-c2ccc(F)cc2)c1-c1ccncc1 [Example B-1305] | – | – | 640 | U937 Cell % inhib @ conc. ([1]; @ 1.0 uM, TNF production, LPS-stimulated U937 cells): 9.0% @

Row | SMILES | IC50 [1, 5] [nM] | inhibition at 1 µM [1, 6] [%] | IC50 ([2]; in vitro P38-alpha kinase) [nM] | also measured
26 | NS(=O)(=O)c1ccc(CNC(=O)NCCCc2[nH]nc(-c3ccc(F)cc3)c2-c2ccncc2)cc1 [Example B-1308] | > 1000 | – | < 100 | –
27 | O=C(NCCCc1[nH]nc(-c2ccc(F)cc2)c1-c1ccncc1)NC1CN2CCC1CC2 (centres unmarked) [Example B-1309] | > 1000 | – | 45 | –
28 | O=C(NCCCc1[nH]nc(-c2ccc(F)cc2)c1-c1ccncc1)NCc1cccnc1 [Example B-1310] | – | 11 | 120 | –
29 | CS(=O)(=O)c1ccc(CNC(=O)NCCCc2[nH]nc(-c3ccc(F)cc3)c2-c2ccncc2)cc1 [Example B-1312] | > 1000 | – | 350 | –
30 | O=C(NCCCc1[nH]nc(-c2ccc(F)cc2)c1-c1ccncc1)NCCc1ccccn1 [Example B-1314] | – | 24 | 45 | –
31 | O=C(NCCCc1[nH]nc(-c2ccc(F)cc2)c1-c1ccncc1)NCC1CC1 [Example B-1316] | – | 36 | 26 | –
32 | O=C(NCCCc1[nH]nc(-c2ccc(F)cc2)c1-c1ccncc1)NCCCN1CCCC1 [Example B-1318] | – | 1 | < 100 | –
33 | O=C(NCCCc1[nH]nc(-c2ccc(F)cc2)c1-c1ccncc1)NCCCN1CCCC1=O [Example B-1319] | > 1000 | – | 240 | –
34 | O=C(c1ccc(I)cc1)N1CCC(c2[nH]nc(-c3ccc(F)cc3)c2-c2ccncc2)CC1 [Example B-1366] | 270 | – | 40 | –
35 | COc1cccc(CC(=O)N2CCC(c3[nH]nc(-c4ccc(F)cc4)c3-c3ccncc3)CC2)c1 [Example B-1370] | 770 | – | < 100 | –
36 | CCS(=O)(=O)N1CCC(c2[nH]nc(-c3ccc(F)cc3)c2-c2ccncc2)CC1 [Example B-1375] | 250 | – | 10 | –
37 | O=S(=O)(c1ccccc1F)N1CCC(c2[nH]nc(-c3ccc(F)cc3)c2-c2ccncc2)CC1 [Example B-1377] | 5000 | – | 120 | –
38 | O=C(Nc1ccccc1F)N1CCC(c2[nH]nc(-c3ccc(F)cc3)c2-c2ccncc2)CC1 [Example B-1379] | 92 | – | < 100 | –
39 | CCNC(=O)N1CCC(c2[nH]nc(-c3ccc(F)cc3)c2-c2ccncc2)CC1 [Example B-1381] | 730 | – | 55 | –
40 | O=C(c1cccs1)N1CCC(c2[nH]nc(-c3ccc(F)cc3)c2-c2ccncc2)CC1 [Example B-1384] | 370 | – | 570 | –
41 | O=C(c1ccccn1)N1CCC(c2[nH]nc(-c3ccc(F)cc3)c2-c2ccncc2)CC1 [Example B-1386] | 250 | – | < 100 | –
42 | O=C(c1ccc(Br)cc1)N1CCC(c2[nH]nc(-c3ccc(F)cc3)c2-c2ccncc2)CC1 [Example B-1388] | 1380 | – | 570 | –
43 | O=C(c1ccc(Cl)cc1)N1CCC(c2[nH]nc(-c3ccc(F)cc3)c2-c2ccncc2)CC1 [Example B-1389] | 570 | – | 60 | –
44 | O=C(c1ccccc1Cl)N1CCC(c2[nH]nc(-c3ccc(F)cc3)c2-c2ccncc2)CC1 [Example B-1397] | – | 85 | 920 | –
45 | O=S(=O)(c1ccccc1)N1CCC(c2[nH]nc(-c3ccc(F)cc3)c2-c2ccncc2)CC1 [Example B-1433] | – | 21 | 260 | –
46 | Cn1cnc(S(=O)(=O)N2CCC(c3[nH]nc(-c4ccc(F)cc4)c3-c3ccncc3)CC2)c1 [Example B-1434] | – | 28 | 190 | –
47 | O=S(=O)(c1ccc(-c2ccon2)s1)N1CCC(c2[nH]nc(-c3ccc(F)cc3)c2-c2ccncc2)CC1 [Example B-1440] | – | 3 | 870 | –
48 | CN(C)c1cccc2c(S(=O)(=O)N3CCC(c4[nH]nc(-c5ccc(F)cc5)c4-c4ccncc4)CC3)cccc12 [Example B-1442] | – | 18 | 1540 | –
49 | COc1ccc(OC)c(S(=O)(=O)N2CCC(c3[nH]nc(-c4ccc(F)cc4)c3-c3ccncc3)CC2)c1 [Example B-1444] | – | 24 | 300 | –
